Paper PMC4199533, “Toxicological and biochemical characterizations of AChE in phosalone-susceptible and resistant populations of the common pistachio psyllid, Agonoscena pistaciae” (Journal of Insect Science, 2014)
Like-named read-outs stand apart in the source and are kept apart here.

Key:
[1] = tested on: T1, AChE (Bam population, susceptible); assay: Ellman microplate kinetics, Michaelis-Menten fit; assay type: biochemical, Agonoscena pistaciae; settings: DTNB; pH 7.0; 37°C; 405 nm; apparent, total AChE
T1 construct: gene AChE1
Text: Ellman microplate kinetics, Michaelis-Menten fit on AChE (Bam population, susceptible)

[2] = tested on: T1, AChE (Bam population, susceptible); assay: Ellman microplate inhibition assay; assay type: biochemical, Agonoscena pistaciae; settings: pH 7.0; 10 min preincubation at room temperature; thiocholine substrate and DTNB; covalent; read-out: I50
Text: Ellman microplate inhibition assay on AChE (Bam population, susceptible)

[3] = tested on: T2, AChE (Rafsanjan population, resistant; modified AChE); settings: read-out: I50, pH 7.0, 10 min preincubation at room temperature, thiocholine substrate and DTNB, covalent
T2 construct: gene AChE1
Text: Ellman microplate inhibition assay on AChE (Rafsanjan population, resistant; modified AChE)

[4] = tested on: T2, AChE (Rafsanjan population, resistant; modified AChE); settings: DTNB; pH 7.0; 37°C; 405 nm; apparent, total AChE
Text: Ellman microplate kinetics, Michaelis-Menten fit on AChE (Rafsanjan population, resistant; modified AChE)

Structure (SMILES): CC(=O)SCC[N+](C)(C)C [ATC, acetylthiocholine iodide]
- Km [1]: 1.25 ± 0.05 µM

Structure (SMILES): CCCC(=O)SCC[N+](C)(C)C [BTC, butyrylthiocholine iodide]
- Km [1]: 4.3 ± 0.14 µM

Structure (SMILES): CNC(=O)Oc1cccc(C)c1 [MTMC, m-tolyl methyl carbamate]
- IC50 [2]: 20430 ± 170 µM
- IC50 [3]: 9450 ± 30 µM

Structure (SMILES): CCC(=O)SCC[N+](C)(C)C [PTC, propionylthiocholine iodide]
- Km [1]: 1.4 ± 0.11 µM
- Km [4]: 4.1 ± 0.06 µM

Structure (SMILES): CNC(=O)O/N=C/C(C)(C)SC [aldicarb]
- IC50 [2]: 2590 ± 20 µM
- IC50 [3]: 2850 ± 60 µM

Structure (SMILES): CNC(=O)Oc1cccc2ccccc12 [carbaryl]
- IC50 [2]: 2360 ± 20 µM
- IC50 [3]: 2050 ± 30 µM

Structure (SMILES): CNC(=O)Oc1cccc2c1OC(C)(C)C2 [carbofuran]
- IC50 [2]: 380 ± 10 µM
- IC50 [3]: 160 ± 10 µM

Structure (SMILES): CNC(=O)/C=C(\C)OP(=O)(OC)OC [monocrotophos]
- IC50 [2]: 230 ± 10 µM
- IC50 ([3]; stated gain): 5280 ± 40 µM

Structure (SMILES): CCN(CC)C(=O)C(Cl)=C(C)OP(=O)(OC)OC [phosphamidon]
- IC50 [2]: 220 ± 10 µM
- IC50 ([3]; stated gain): 4790 ± 20 µM

Structure (SMILES): CNC(=O)Oc1ccccc1OC(C)C [propoxur]
- IC50 [2]: 1060 ± 30 µM
- IC50 [3]: 830 ± 10 µM
